In paper PMC11209700, “In Silico Drug Repurposing Uncovered the Antiviral Potential of the Antiparasitic Drug Oxibendazole Against the Chikungunya Virus” (ACS Omega, 2024):
Starred links: 1 amine or outer side, 2 acyl side, 3 side chain; linkers in the order of their positions; H or OH if unused. Positions of bridges follow the written chain, without caps; N, C: chain ends. Non-standard residues stand in square brackets, D forms with d. Residues, ends and D or L forms follow the SMILES beside them. *: point of attachment. hTyr(3S-OH,4S-OH,3'-OSO3H) = N[C@H](C(=O)O)[C@H](O)[C@@H](O)c1ccc(O)c(OS(=O)(=O)O)c1; Orn(4R-OH,5R-OH) = O=C([C@H](C[C@@H](O)[C@@H](O)N[*:3])N[*:1])[*:2]; Pro(3S-OH,4S-Me) = C[C@H]1CN[C@H](C(=O)O)[C@H]1O; X1 = CCCCCOc1ccc(-c2cc(-c3ccc(C(=O)*)cc3)no2)cc1; Gln(3R-OH) = NC(=O)C[C@@H](O)[C@H](N)C(=O)O; Hyp = O=C(O)[C@@H]1C[C@@H](O)CN1

Experiments:
[1] = Cytotoxicity by MTT assay in Vero cells; conditions: African green monkey
[2] = tested on: CHIKV BRA/RJ/18; assay: Antiviral evaluation against CHIKV BRA/RJ/18 replication in Vero cells (plaque assay); type: cell-based, Chikungunya virus; conditions: for EC50 / inhibition at 50 µM: Chikungunya virus, Vero; for EC50: 24 h, read-out: CHIKV BRA/RJ/18 EC50; for CHIKV BRA/RJ/18 EC50: Vero cells, MOI 1, 24 h; for inhibition at 50 µM: read-out: CHIKV BRA/RJ/18 inhibition (%); for CHIKV BRA/RJ/18 SI (selectivity index): ratio between CC50 and EC50 values
[3] = tested on: CHIKV 181-25 strain; assay: Antiviral screening against CHIKV 181-25 replication in Vero cells (plaque assay); type: cell-based, Chikungunya virus; conditions: inhibition rate of CHIKV replication at 50 μM, % relative to control, 24 hpi; for inhibition at 50 µM: Chikungunya virus; for CHIKV 181-25 inhibition (%): 50 µM
Description: DMSO (0.5%) was used as vehicle control, while CQ (50 μM) was used as a positive control due to its in vitro antiviral activity against CHIKV.[57]
Finally, the overlay medium was removed, and cells were fixed and stained with 10% formaldehyde and 0.2% crystal violet. Plaques were counted, and virus titers were determined as PFU/mL. Inhibition rates were determined by comparing the number of PFU of infected and treated cells and infected and untreated cells (100% infectivity).

[4] = tested on: CHIKV; conditions: read-out: EC50 against CHIKV; cited from earlier work
[5] = tested on: CHIKV; conditions: cited from earlier work
[6] = tested on: Zika virus; conditions: read-out: EC50 against Zika virus; cited from earlier work
[7] = tested on: CHIKV BRA/RJ/18; assay: Time-of-drug addition assay; type: cell-based; conditions: Chikungunya virus
[8] = tested on: mice; conditions: doses up to 10 g/kg; cited from earlier work
[9] = tested on: CHIKV BRA/RJ/18; assay: Virus release assay; conditions: 50 μM, 6 hpi
[10] = tested on: CHIKV BRA/RJ/18; assay: Attachment assay; conditions: Chikungunya virus, read-out: inhibition rate in attachment assay
[11] = tested on: rats; conditions: doses up to 10 g/kg; cited from earlier work
[12] = single oral dose of 400 mg; cited from earlier work
[13] = tested on: human herpesvirus 8; conditions: read-out: EC50 against human herpesvirus 8; cited from earlier work
[14] = tested on: CHIKV BRA/RJ/18; assay: Entry assay; conditions: Chikungunya virus, read-out: inhibition rate in virus entry assay
[15] = tested on: CHIKV BRA/RJ/18; assay: Virucidal assay; type: cell-based, Chikungunya virus; conditions: 50 μM, 2 × 10^5 PFU treated 2 h at 37 °C

For `COC(=O)Nc1nc2ccc(Sc3ccccc3)cc2[nH]1` [FBZ, fenbendazole], the CC50 at 72 h [1] was greater than 500 µM, the EC50 [2] was greater than 50 µM and the “CHIKV BRA/RJ/18 EC50” value [2] was “none exhibited anti-CHIKV activity”.

With `CCN(CC)CCCC(C)Nc1ccnc2cc(Cl)ccc12` (stereo not drawn) [CQ, chloroquine] the inhibition at 50 µM [3] was 98.2 ± 0.2%, the CC50 at 72 h [1] was 469 ± 84.4 µM and the EC50 [2] was 47.5 ± 10.2 µM. The inhibition at 50 µM [2] was 48.5 ± 11.7% and the “CHIKV BRA/RJ/18 SI (selectivity index)” value [2] was 9.9.

With `COC(=O)Nc1nc2ccc(C(=O)c3ccccc3)cc2[nH]1` [MBZ, mebendazole] the CC50 at 72 h [1] was greater than 500 µM, the EC50 [2] was greater than 50 µM and the “CHIKV BRA/RJ/18 EC50” value [2] was “none exhibited anti-CHIKV activity”.

In the case of `CCCCCOc1ccc(-c2cc(-c3ccc(C(=O)N[C@H]4C[C@@H](O)[C@@H](O)NC(=O)[C@@H]5[C@@H](O)[C@@H](C)CN5C(=O)[C@H]([C@H](O)CC(N)=O)NC(=O)[C@H]([C@H](O)[C@@H](O)c5ccc(O)c(OS(=O)(=O)O)c5)NC(=O)[C@@H]5C[C@@H](O)CN5C(=O)[C@H]([C@@H](C)O)NC4=O)cc3)no2)cc1` [micafungin] (X1-[Orn(4R-OH,5R-OH)]T[Hyp][hTyr(3S-OH,4S-OH,3'-OSO3H)][Gln(3R-OH)][Pro(3S-OH,4S-Me)]; lactam 1-C), the EC50 [4] is given as 20.6 µM.

For `CC(=O)Oc1ccccc1C(=O)Nc1ncc([N+](=O)[O-])s1` [nitazoxanide], the EC50 [4] is given as 2.96 µM.

For `CCCc1nc2c(C)cc(-c3nc4ccccc4n3C)cc2n1Cc1ccc(-c2ccccc2C(=O)O)cc1` [telmisartan], the “effect on CHIKV infection in mice” value [5] is listed as “ameliorate CHIKV infection in mice” and the EC50 [4] is listed as 15.3 µM.

With `CCCSc1ccc2nc(NC(=O)OC)[nH]c2c1` [ABZ, albendazole] the CC50 at 72 h [1] was greater than 500 µM, the EC50 [2] was greater than 50 µM and the “CHIKV BRA/RJ/18 EC50” value [2] was “none exhibited anti-CHIKV activity”.

For `CCCCCOC(=O)Nc1nc(=O)n([C@@H]2O[C@H](C)[C@@H](O)[C@H]2O)cc1F` [CPB, capecitabine], the inhibition at 50 µM [3] was 0%, the “CHIKV 181-25 inhibition (%)” value [3] was “did not present antiviral activity” and the “CHIKV 181-25 inhibition (%)” value ([3]; listed as CPD) was “did not inhibit CHIKV replication”.

In the case of `CCCCCCCCCCC[C@@H](C[C@@H]1OC(=O)[C@H]1CCCCCC)OC(=O)[C@H](CC(C)C)NC=O` [orlistat], the EC50 [4] is given as 0.82 µM.

In the case of `CCCOc1ccc2nc(NC(=O)OC)[nH]c2c1` [OBZ, oxibendazole], the EC50 [6] is listed as 0.7 µM, the inhibition at 50 µM [3] is listed as 66.4 ± 2.5% and the inhibition at 50 µM ([7]; read-out: inhibition rate in time-of-addition assay, 50 μM, added after 4 hpi until 10 hpi) is listed as roughly 40%. For the same molecule, the inhibition at 50 µM ([7]; read-out: inhibition rate in time-of-addition assay, 50 μM, added until 4 hpi) was roughly 55%, the “lethality (LD50 not determinable)” value [8] was “no deaths were reported” and the “intracellular/extracellular ratio of virus titers” value [9] was 3.78. For the same molecule, the CC50 at 72 h [1] was greater than 500 µM, the EC50 [2] was 11.4 ± 3.2 µM and the inhibition at 50 µM [2] was 61.8 ± 2.7%. For the same molecule, the “CHIKV BRA/RJ/18 SI (selectivity index)” value [2] was greater than 44.0, the inhibition at 50 µM [10] was 13.1% and the “lethality (LD50 not determinable)” value [11] was “no deaths were reported”. The “side effects in clinical trials” value [12] was “low frequency of side effects”, the EC50 [13] was 1.5 µM and the inhibition at 50 µM [14] was 33.8%. For the same molecule, the virucidal effect [15] was “no virucidal effects were observed”.

For `CC(C)OC(=O)[C@H](C)N[P@](=O)(OC[C@H]1O[C@@H](n2ccc(=O)[nH]c2=O)[C@](C)(F)[C@@H]1O)Oc1ccccc1` [sofosbuvir], the “effect on CHIKV infection in mice” value [5] is given as “ameliorate CHIKV infection in mice” and the EC50 [4] is given as 2.7 µM.

For `Cc1ccc(C(=O)Nc2ccc(S(=O)(=O)O)c3cc(S(=O)(=O)O)cc(S(=O)(=O)O)c23)cc1NC(=O)c1cccc(NC(=O)Nc2cccc(C(=O)Nc3cc(C(=O)Nc4ccc(S(=O)(=O)O)c5cc(S(=O)(=O)O)cc(S(=O)(=O)O)c45)ccc3C)c2)c1` [suramin], the “effect on CHIKV infection in mice” value [5] is listed as “ameliorate CHIKV infection in mice” and the EC50 [4] is listed as 21.5 µM.
